Experimental data published in US6376169B1, “Method for diagnosing a vascular condition” (Queens University at Kingston, priority 1998, dated 2002).
“Also recorded” adds a separate entry of the source.

Assays:
[1] = tested on: uPAR; experiment: Binding of [125I]-prourokinase to HTR-8/SVneo cells (uPAR expression); type: cell-based, human; conditions: for Kd: Kd of [125I]-prourokinase on cells cultured with compound, read-out: Kd (nM) ± SEM; for increase in the expression of uPAR: flow cytometric and radioligand binding studies; for Bmax (sites/cell) ± SEM: [125I]-prourokinase binding to cells cultured with compound
Description: Determination of uPAR expression by urokinase binding analysis. Measurement of uPAR expression by ligand binding analysis was performed using [^125I]-prourokinase as the ligand, as described (Zini J M, et al., Blood 79:2917 (1992)). Prourokinase was radiolabeled with ^125I, using Iodobeads, to a specific radioactivity of at least 10^6 cpm/μg. Cells were then chilled to 4° C., washed with cold PBS containing 1% BSA, and incubated for 2 h with increasing concentrations of[^125I]-prourokinase in the absence (to determine total binding) or presence (to determine non-specific binding) of a 100-fold molar excess of unlabeled prourokinase. Specific binding was defined as the difference between total and non-specific binding, and analyzed by non-linear curve fitting methods (least squares method) using the Kaliedograph software program (Synergy Software, Reading, Pa.).

[2] = tested on: HTR-8/SVneo cells; experiment: In vitro invasion of HTR-8/SVneo cells through Matrigel; type: cell-based, human; conditions: for increase in invasion: 20% oxygen, 100 μM cobalt chloride or 30 mM Tiron; for Invasion Index (%) ± SE: standard = 100
Description: In vitro invasion assay. An assay which employs reconstituted basement membrane (Matrigel; Collaborative Biomedical Products, Bedford, Mass.) as the substrate for invasion was used to determine the effect of hypoxia on the invasiveness of tumor cells. Costar Transwell inserts (6.5 mm diameter polycarbonate membrane, 8 μm pore; Corning Costar Corp., Cambridge, Mass.) were coated with 100 μl of a 1 mg/ml solution of Matrigel diluted in cold serum-free culture medium, placed in the wells of a 24-well tissue culture plate and allowed to air-dry for 12 h in a laminar flow cabinet. After reconstituting the Matrigel by incubating for 1 h with 100 μl of serum-free medium, 5.0×10^4 cells in 100 μl aliquots of serum-containing medium were added to the Transwells. […] Cells which invaded through the Matrigel and the pores of the underlying membrane were fixed for 10 min in Carnoy's fixative (25% acetic acid, 75% methanol) and stained for 3 h in 1% toluidine blue, 1% sodium borate. Following several washes in tap water, the membranes were removed with a small scalpel blade, placed on a microscope slide and coverslipped. The invasion index' was then determined by counting, under a microscope, the total number of stained cells in the underside of the polycarbonate membranes.
Alternatively, cells (e.g., HTR-8/SVneo, MDA-MB-231) were labeled by incubation for 24 h in the presence of 10 μCi/ml [^3H]-thymidine. The cells were then harvested, adjusted to a concentration of 5.0×10^5/ml, and 100 μl aliquots added in triplicate to the upper wells of the invasion chambers. After a 24-h incubation, cells in the upper and lower compartments of the chambers were harvested. The invasion index, reflecting the percentage of added cells which had invaded the Matrigel was determined by measurement of the radioactivity in the upper and lower compartments, as well as in the membrane.

[3] = tested on: MDA-MB-231 cells; experiment: In vitro invasion of MDA-MB-231 cells through Matrigel; type: cell-based, human; conditions: 1% O2 + 30% CO
Description: In vitro invasion assay. An assay which employs reconstituted basement membrane (Matrigel; Collaborative Biomedical Products, Bedford, Mass.) as the substrate for invasion was used to determine the effect of hypoxia on the invasiveness of tumor cells. Costar Transwell inserts (6.5 mm diameter polycarbonate membrane, 8 μm pore; Corning Costar Corp., Cambridge, Mass.) were coated with 100 μl of a 1 mg/ml solution of Matrigel diluted in cold serum-free culture medium, placed in the wells of a 24-well tissue culture plate and allowed to air-dry for 12 h in a laminar flow cabinet. After reconstituting the Matrigel by incubating for 1 h with 100 μl of serum-free medium, 5.0×10^4 cells in 100 μl aliquots of serum-containing medium were added to the Transwells. Following a 24-h incubation under either 20% or 1% O2 in the absence or presence of 10 μg/ml blocking anti-uPAR antibody (3936), or under 1% O2+30% CO (to assess the role of a heme protein on invasion), cells on the surface of the Matrigel-coated polycarbonate membrane (non-invading cells) were removed by scraping with a cotton swab. […] The invasion index' was then determined by counting, under a microscope, the total number of stained cells in the underside of the polycarbonate membranes.

[4] = tested on: cell-associated uPA; experiment: Zymography of cell-associated plasminogen activators in MDA-MB-231 cell extracts; type: cell-based, human
Description: To assess the levels of plasminogen activators associated with cells cultured for 24 h under 20% and 1% O2, extracts were prepared by disrupting trypsinized cell pellets with 2% SDS in Tris-buffered saline (TBS; 10 mM Tris, 0.15 M NaCl, pH 7.5) using a Polytron homogenizer (Brinkmann Instruments, Rexdale, ON, Canada). The homogenates were centrifuged at 15,000 g for 15 min to remove insoluble materials and 100 μg of extracted protein were analyzed by casein-plasminogen gel zymography as described above.

[5] = tested on: uPAR; experiment: uPAR protein and mRNA in cancer cells (Example 1); type: cell-based; conditions: 24 hours, standard conditions; 100 μM cobalt chloride; Tiron

Row | SMILES | Kd [1] [nM] | increase in the expression of uPAR ([1]; Tiron) [fold] | Bmax (sites/cell) ± SEM [1] | increase in invasion [2] [%] | Invasion Index (%) ± SE ([2]; Standard (20% O2) + compound) [%] | inhibition of hypoxia-stimulated invasion ([2]; 1% oxygen + 20% carbon monoxide) [%] | Invasion Index (%) ± SE ([2]; Hypoxia (1% O2) + 20% CO) [%] | effect on hypoxia-mediated increase in invasiveness [3] | effect on hypoxic increase in cell-associated uPA ([4]; 1% O2 + 30% CO, listed as CO) | increase in the expression of uPAR ([1]; cobalt chloride) [%] | cell-associated uPA levels ([4]; culture with cobalt chloride) | uPAR protein and mRNA levels [5]
1 | O=S(=O)([O-])c1cc(O)c(O)c(S(=O)(=O)[O-])c1.[Na+].[Na+] [Tiron, sodium 4,5-dihydroxybenzene-1,3-disulfonate] | 8.08 ± 1.11 | 3 | 623,213 ± 102,360 sites/cell | 29.3±12.7 | 129.3 ± 12.7 | – | – | – | – | – | – | –
2 | [C-]#[O+] [carbon monoxide] | – | – | – | – | – | 87 | 104.0 ± 8.5 | completely abrogated | abrogated the hypoxic increase in cell-associated uPA; also recorded: prevented the effect of hypoxia on cell-associated uPA increases | – | – | –
3 | [Cl][Co][Cl] [cobalt chloride] | 3.58 ± 0.69 | – | 285,711 ± 38,324 sites/cell | 24.6±8.4 | 124.6 ± 8.4 | – | – | – | – | 28 | increased cell-associated uPA | elevated uPAR protein and mRNA levels
